In publication PMC11845477, “Exploring the principles behind antibiotics with limited resistance” (Nature Communications, 2025):

How the values were obtained:
[1] = tested on: E. coli ATCC 25922 (SEN) and E. coli NCTC13846 (MDR); assay: Adaptive laboratory evolution (ALE), relative MIC of evolved lines; type: cell-based, Escherichia coli
How it was run: (§1)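 Ten parallel populations per antibiotic–ancestor pair were evolved in MHB at 37 °C, starting near 50% growth-inhibiting drug. Every 72 h they were passaged into 0.5–2.5× increasing concentrations, keeping the highest-drug well with OD600 > 0.2.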

[2] = tested on: K. pneumoniae ATCC 10031 (SEN) and K. pneumoniae ATCC 700603 (MDR); assay: as above; type: cell-based, Klebsiella pneumoniae
How it was run: as §1

SMILES: CNC(C)C1CCC(N)C(OC2C(N)CC(N)C(OC3OCC(C)(O)C(NC)C3O)C2O)O1 (stereo not drawn) [Gentamicin]
- Relative MIC (log10) ([1]; EC-MDR (Escherichia coli NCTC 13846), evolved line 3 adapted to the named antibiotic): 1.806
- Relative MIC (log10) ([1]; EC-MDR (Escherichia coli NCTC 13846), evolved line 5 adapted to the named antibiotic): 1.806
- Relative MIC (log10) ([1]; EC-MDR (Escherichia coli NCTC 13846), evolved line 6 adapted to the named antibiotic): 1.806
- Relative MIC (log10) ([1]; EC-MDR (Escherichia coli NCTC 13846), evolved line 7 adapted to the named antibiotic): 1.505
- Relative MIC (log10) ([1]; EC-MDR (Escherichia coli NCTC 13846), evolved line 9 adapted to the named antibiotic): 1.806
- Relative MIC ([1]; EC-MDR, Escherichia coli NCTC 13846, evolved line 1 versus ancestor): 64
- Relative MIC ([1]; EC-MDR, Escherichia coli NCTC 13846, evolved line 2 versus ancestor): 32
- Relative MIC ([1]; EC-MDR, Escherichia coli NCTC 13846, evolved line 3 versus ancestor): 64
- Relative MIC ([1]; EC-MDR, Escherichia coli NCTC 13846, evolved line 4 versus ancestor): 64
- Relative MIC ([1]; EC-MDR, Escherichia coli NCTC 13846, evolved line 5 versus ancestor): 64
- Relative MIC ([1]; EC-MDR, Escherichia coli NCTC 13846, evolved line 6 versus ancestor): 64
- Relative MIC ([1]; EC-MDR, Escherichia coli NCTC 13846, evolved line 7 versus ancestor): 32
- Relative MIC ([1]; EC-MDR, Escherichia coli NCTC 13846, evolved line 8 versus ancestor): 64
- Relative MIC ([1]; EC-MDR, Escherichia coli NCTC 13846, evolved line 9 versus ancestor): 64
- Relative MIC (log10) ([1]; EC-SEN (Escherichia coli ATCC 25922), evolved line 2 adapted to the named antibiotic): 1.505
- Relative MIC (log10) ([1]; EC-SEN (Escherichia coli ATCC 25922), evolved line 4 adapted to the named antibiotic): 2.107
- Relative MIC (log10) ([1]; EC-SEN (Escherichia coli ATCC 25922), evolved line 5 adapted to the named antibiotic): 1.806
- Relative MIC (log10) ([1]; EC-SEN (Escherichia coli ATCC 25922), evolved line 6 adapted to the named antibiotic): 2.107
- Relative MIC (log10) ([1]; EC-SEN (Escherichia coli ATCC 25922), evolved line 9 adapted to the named antibiotic): 1.806
- Relative MIC ([1]; EC-SEN, Escherichia coli ATCC 25922, evolved line 2 versus ancestor): 32
- Relative MIC ([1]; EC-SEN, Escherichia coli ATCC 25922, evolved line 3 versus ancestor): 32
- Relative MIC ([1]; EC-SEN, Escherichia coli ATCC 25922, evolved line 4 versus ancestor): 128
- Relative MIC ([1]; EC-SEN, Escherichia coli ATCC 25922, evolved line 5 versus ancestor): 64
- Relative MIC ([1]; EC-SEN, Escherichia coli ATCC 25922, evolved line 6 versus ancestor): 128
- Relative MIC ([1]; EC-SEN, Escherichia coli ATCC 25922, evolved line 7 versus ancestor): 32
- Relative MIC ([1]; EC-SEN, Escherichia coli ATCC 25922, evolved line 8 versus ancestor): 64
- Relative MIC ([1]; EC-SEN, Escherichia coli ATCC 25922, evolved line 9 versus ancestor): 64
- Relative MIC ([1]; EC-SEN, Escherichia coli ATCC 25922, evolved line 10 versus ancestor): 16
- Relative MIC ([1]; Escherichia coli ATCC 25922 (EC-SEN), evolved line 2): 32
- Relative MIC ([1]; Escherichia coli ATCC 25922 (EC-SEN), evolved line 3): 32
- Relative MIC ([1]; Escherichia coli ATCC 25922 (EC-SEN), evolved line 4): 128
- Relative MIC ([1]; Escherichia coli ATCC 25922 (EC-SEN), evolved line 5): 64
- Relative MIC ([1]; Escherichia coli ATCC 25922 (EC-SEN), evolved line 6): 128
- Relative MIC ([1]; Escherichia coli ATCC 25922 (EC-SEN), evolved line 7): 32
- Relative MIC ([1]; Escherichia coli ATCC 25922 (EC-SEN), evolved line 8): 64
- Relative MIC ([1]; Escherichia coli ATCC 25922 (EC-SEN), evolved line 9): 64
- Relative MIC ([1]; Escherichia coli ATCC 25922 (EC-SEN), evolved line 10): 16
- Relative MIC ([1]; Escherichia coli NCTC 13846 (EC-MDR), evolved line 1): 64
- Relative MIC ([1]; Escherichia coli NCTC 13846 (EC-MDR), evolved line 2): 32
- Relative MIC ([1]; Escherichia coli NCTC 13846 (EC-MDR), evolved line 3): 64
- Relative MIC ([1]; Escherichia coli NCTC 13846 (EC-MDR), evolved line 4): 64
- Relative MIC ([1]; Escherichia coli NCTC 13846 (EC-MDR), evolved line 5): 64
- Relative MIC ([1]; Escherichia coli NCTC 13846 (EC-MDR), evolved line 6): 64
- Relative MIC ([1]; Escherichia coli NCTC 13846 (EC-MDR), evolved line 7): 32
- Relative MIC ([1]; Escherichia coli NCTC 13846 (EC-MDR), evolved line 8): 64
- Relative MIC ([1]; Escherichia coli NCTC 13846 (EC-MDR), evolved line 9): 64
- Relative MIC (log10) ([2]; KP-SEN (Klebsiella pneumoniae ATCC 10031), evolved line 2 adapted to the named antibiotic): 2.107
- Relative MIC (log10) ([2]; KP-SEN (Klebsiella pneumoniae ATCC 10031), evolved line 4 adapted to the named antibiotic): 1.806
- Relative MIC (log10) ([2]; KP-SEN (Klebsiella pneumoniae ATCC 10031), evolved line 5 adapted to the named antibiotic): 1.806
- Relative MIC ([2]; KP-SEN (Klebsiella pneumoniae ATCC 10031), evolved line 6): 64
- Relative MIC (log10) ([2]; KP-SEN (Klebsiella pneumoniae ATCC 10031), evolved line 6 adapted to the named antibiotic): 1.806
- Relative MIC ([2]; KP-SEN (Klebsiella pneumoniae ATCC 10031), evolved line 8): 128
- Relative MIC (log10) ([2]; KP-SEN (Klebsiella pneumoniae ATCC 10031), evolved line 8 adapted to the named antibiotic): 2.107
- Relative MIC ([2]; KP-SEN (Klebsiella pneumoniae ATCC 10031), evolved line 9): 128
- Relative MIC ([2]; KP-SEN (Klebsiella pneumoniae ATCC 10031), evolved line 10): 128
- Relative MIC ([2]; KP-SEN, Klebsiella pneumoniae ATCC 10031, evolved line 1 versus ancestor): 64
- Relative MIC ([2]; KP-SEN, Klebsiella pneumoniae ATCC 10031, evolved line 2 versus ancestor): 128
- Relative MIC ([2]; KP-SEN, Klebsiella pneumoniae ATCC 10031, evolved line 4 versus ancestor): 64
- Relative MIC ([2]; KP-SEN, Klebsiella pneumoniae ATCC 10031, evolved line 5 versus ancestor): 64
- Relative MIC ([2]; KP-SEN, Klebsiella pneumoniae ATCC 10031, evolved line 6 versus ancestor): 64
- Relative MIC ([2]; KP-SEN, Klebsiella pneumoniae ATCC 10031, evolved line 7 versus ancestor): 64
- Relative MIC ([2]; KP-SEN, Klebsiella pneumoniae ATCC 10031, evolved line 8 versus ancestor): 128
- Relative MIC ([2]; KP-SEN, Klebsiella pneumoniae ATCC 10031, evolved line 9 versus ancestor): 128
- Relative MIC ([2]; KP-SEN, Klebsiella pneumoniae ATCC 10031, evolved line 10 versus ancestor): 128
- Relative MIC ([2]; KP-SEN, Klebsiella pneumoniae ATCC 10031, evolved line 5): 64
- Relative MIC ([2]; KP-SEN, Klebsiella pneumoniae ATCC 10031, evolved line 7): 64
- Relative MIC ([2]; Klebsiella pneumoniae ATCC 10031 (KP-SEN), evolved line 1): 64
- Relative MIC ([2]; Klebsiella pneumoniae ATCC 10031 (KP-SEN), evolved line 2): 128
- Relative MIC ([2]; Klebsiella pneumoniae ATCC 10031 (KP-SEN), evolved line 4): 64
